Test results published in patent US20090111778A1, “2-Keto-Oxazoles as Modulators of Fatty Acid Amide Hydrolase” (priority 2005, published 2009).
Structures can show the parent of a compound that is named as a salt. Where two headings read alike, the source gives them in different places.

Key:
rat FAAH = target: T1, rat FAAH (Rattus norvegicus, UniProt P97612); assay: Assay Method 2: FAAH assay, hydrolysis of 3H-anandamide by homogenate of SK-N-MC cells transfected with rat FAAH; format: biochemical; conditions: T84 or transfected SK-N-MC cell homogenate, 3H-AEA tracer 80 nM, rt 1 h, pH 9
T1 construct: expressed in transfected cells
T1 sequence (P97612 1-579): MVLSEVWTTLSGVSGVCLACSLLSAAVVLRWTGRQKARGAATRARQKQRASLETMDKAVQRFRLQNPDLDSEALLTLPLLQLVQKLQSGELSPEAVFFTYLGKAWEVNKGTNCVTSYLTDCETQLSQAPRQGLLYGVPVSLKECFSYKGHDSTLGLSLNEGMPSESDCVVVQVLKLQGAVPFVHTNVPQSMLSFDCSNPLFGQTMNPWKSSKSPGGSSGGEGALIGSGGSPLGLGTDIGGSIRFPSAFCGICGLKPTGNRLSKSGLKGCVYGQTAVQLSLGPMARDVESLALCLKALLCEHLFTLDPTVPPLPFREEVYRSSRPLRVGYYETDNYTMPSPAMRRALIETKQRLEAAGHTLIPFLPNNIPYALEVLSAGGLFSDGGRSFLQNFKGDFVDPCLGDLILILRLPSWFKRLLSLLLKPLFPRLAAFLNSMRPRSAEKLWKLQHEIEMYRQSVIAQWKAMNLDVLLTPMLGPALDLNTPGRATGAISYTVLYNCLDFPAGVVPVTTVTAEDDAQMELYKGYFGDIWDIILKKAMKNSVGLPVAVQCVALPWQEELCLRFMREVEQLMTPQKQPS
Outline: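 SK-N-MC cells stably transfected with rat FAAH cDNA (electroporation, G418 selection); homogenate hydrolyses 3H-anandamide. Reaction 1 h at rt, then filtered through activated charcoal; unbound labelled ethanolamine in filtrate counted by scintillation.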

human FAAH = target: T2, human FAAH (Homo sapiens, UniProt O00519); assay: Assay Method 1: FAAH assay, hydrolysis of 3H-anandamide by homogenate of SK-N-MC cells transfected with human FAAH; format: biochemical
T2 construct: expressed in transfected cells
T2 sequence (O00519 1-579): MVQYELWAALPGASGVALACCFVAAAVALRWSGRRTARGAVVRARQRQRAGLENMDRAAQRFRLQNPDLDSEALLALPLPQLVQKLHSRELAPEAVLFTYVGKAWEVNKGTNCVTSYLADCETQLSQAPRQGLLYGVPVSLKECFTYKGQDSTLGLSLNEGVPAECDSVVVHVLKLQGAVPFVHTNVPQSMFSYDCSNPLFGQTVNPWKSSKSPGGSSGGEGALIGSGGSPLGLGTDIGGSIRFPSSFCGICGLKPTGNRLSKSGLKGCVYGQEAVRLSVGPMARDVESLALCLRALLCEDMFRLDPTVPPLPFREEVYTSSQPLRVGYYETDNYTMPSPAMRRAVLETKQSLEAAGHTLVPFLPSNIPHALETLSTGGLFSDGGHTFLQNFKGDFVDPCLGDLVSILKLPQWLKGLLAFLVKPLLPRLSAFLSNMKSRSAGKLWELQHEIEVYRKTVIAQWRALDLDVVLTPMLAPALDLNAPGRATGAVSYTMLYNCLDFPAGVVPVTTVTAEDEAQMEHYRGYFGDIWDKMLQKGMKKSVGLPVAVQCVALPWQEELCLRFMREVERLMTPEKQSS
Outline: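 Homogenate of SK-N-MC cells stably expressing human FAAH (G418-selected clones) incubated with compound and 80 nM [1-3H-ethanolamine]anandamide for 1 h at rt. Released 3H-ethanolamine separated from substrate by activated-charcoal filtration, then counted by scintillation.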

[1] = human FAAH, T84 or transfected SK-N-MC cell homogenate, 3H-AEA tracer 80 nM, rt 1 h, pH 9, read-out: Assay 1 IC50

| SMILES | IC50 (rat FAAH) [nM] | IC50 (human FAAH; [1]) [nM] | IC50 (human FAAH) [nM] |
| --- | --- | --- | --- |
| O=C(CCCC1CCN(S(=O)(=O)c2ccccc2)CC1)c1ncco1 [Example 59, 4-(1-Benzenesulfonyl-piperidin-4-yl)-1-oxazol-2-yl-butan-1-one] | 165 | 705 | – |
| CC(C)(C)OC(=O)N1CCC(CCCC(=O)c2ncc(C(=O)O)o2)CC1 [Example 130, 4-[4-(5-Carboxy-oxazol-2-yl)-4-oxo-butyl]-piperidine-1-carboxylic acid tert-butyl ester] | 19 | 30 | – |
| O=C(CCCC1CCN(C(=O)CCc2cccnc2)CC1)c1ncco1 [Example 47, 1-Oxazol-2-yl-4-[1-(3-pyridin-3-yl-propionyl)-piperidin-4-yl]-butan-1-one] | 700 | 400 | – |
| O=C(CCCC1CCN(Cc2ccc(OC3CCCCC3)cc2)CC1)c1ncco1 [Example 134, 4-[1-(4-Cyclohexyloxy-benzyl)-piperidin-4-yl]-1-oxazol-2-yl-butan-1-one] | 119 | 119 | – |
| CC(C)(C)CC(=O)N1CCC(CCCC(=O)c2ncco2)CC1 [Example 25, 3,3-Dimethyl-1-[4-(4-oxazol-2-yl-4-oxo-butyl)-piperidin-1-yl]-butan-1-one] | 320 | 90 | – |
| O=C(CCCC1CCN(Cc2ccc(Oc3ccccc3)nc2)CC1)c1ncco1 [Example 105, 1-Oxazol-2-yl-4-[1-(6-phenoxy-pyridin-3-ylmethyl)-piperidin-4-yl]-butan-1-one] | 57 | 53 | – |
| CCCOC(=O)N1CCC(CCCC(=O)c2ncco2)CC1 [Example 70, 4-(4-Oxazol-2-yl-4-oxo-butyl)-piperidine-1-carboxylic acid propyl ester] | 19 | 7 | – |
| O=C(CCCC1CCN(C(=O)COCc2ccccc2)CC1)c1ncco1 [Example 34, 4-[1-(2-Benzyloxy-acetyl)-piperidin-4-yl]-1-oxazol-2-yl-butan-1-one] | 250 | 240 | – |
| CC(C)(C)Oc1ccc(CN2CCC(CCCC(=O)c3ncco3)CC2)cc1 [Example 24, 4-[1-(4-tert-Butoxy-benzyl)-piperidin-4-yl]-1-oxazol-2-yl-butan-1-one] | 18 | 32 | – |
| O=C(CCCC1CCN(Cc2cncc(Br)c2)CC1)c1ncco1 [Example 78, 4-[1-(5-Bromo-pyridin-3-ylmethyl)-piperidin-4-yl]-1-oxazol-2-yl-butan-1-one] | 500 | 98 | – |
| O=C(CCCC1CCN(S(=O)(=O)c2ccc(Cl)cc2)CC1)c1ncco1 [Example 60, 4-[1-(4-Chloro-benzenesulfonyl)-piperidin-4-yl]-1-oxazol-2-yl-butan-1-one] | 34 | 4 | – |
| O=C(CCCC1CCN(C(=O)COc2ccc(Cl)cc2)CC1)c1ncco1 [Example 35, 4-{1-[2-(4-Chloro-phenoxy)-acetyl]-piperidin-4-yl}-1-oxazol-2-yl-butan-1-one] | 38 | 19 | – |
| O=C(CCCC1CCN(Cc2cc3ccccc3nc2Cl)CC1)c1ncco1 [Example 97, 4-[1-(2-Chloro-quinolin-3-ylmethyl)-piperidin-4-yl]-1-oxazol-2-yl-butan-1-one] | 23 | 12 | – |
| CC(C)Oc1cccc(CN2CCC(CCCC(=O)c3ncco3)CC2)c1 [Example 135, 4-[1-(3-Isopropoxy-benzyl)-piperidin-4-yl]-1-oxazol-2-yl-butan-1-one] | 9 | 5 | – |
| O=C(O)c1cnc(C(=O)CCCC2CCN(Cc3cccc(-c4ccccc4)c3)CC2)o1 [Example 143, 2-[4-(1-Biphenyl-3-ylmethyl-piperidin-4-yl)-butyryl]-oxazole-5-carboxylic acid trifluoroacetic acid salt] | 3 | 14 | – |
| COc1cccc(CN2CCC(CCCC(=O)c3ncco3)CC2)c1 [Example 17, 4-[1-(3-Methoxy-benzyl)-piperidin-4-yl]-1-oxazol-2-yl-butan-1-one] | 308 | 36 | – |
| O=C(CCCC1CCN(Cc2ccc(Br)cc2)CC1)c1ncco1 [Example 91, 4-[1-(4-Bromo-benzyl)-piperidin-4-yl]-1-oxazol-2-yl-butan-1-one] | 270 | 45 | – |

| SMILES | IC50 (rat FAAH) [nM] | IC50 (human FAAH; [1]) [nM] | IC50 (human FAAH) [nM] |
| --- | --- | --- | --- |
| Cc1ccc(S(=O)(=O)N2CCC(CCCC(=O)c3ncco3)CC2)cc1 [Example 52, 1-Oxazol-2-yl-4-[1-(toluene-4-sulfonyl)-piperidin-4-yl]-butan-1-one] | 13 | 1040 | – |
| O=C(CCCC1CCN(Cc2cc(F)cc(F)c2F)CC1)c1ncco1 [Example 124, 1-Oxazol-2-yl-4-[1-(2,3,5-trifluoro-benzyl)-piperidin-4-yl]-butan-1-one] | 450 | 30 | – |
| COc1ccc(CN2CCC(CCCC(=O)c3ncco3)CC2)cc1 [Example 16, 4-[1-(4-Methoxy-benzyl)-piperidin-4-yl]-1-oxazol-2-yl-butan-1-one] | 663 | – | 132 |
| CN(C)c1ccc(CN2CCC(CCCC(=O)c3ncco3)CC2)cc1 [Example 88, 4-[1-(4-Dimethylamino-benzyl)-piperidin-4-yl]-1-oxazol-2-yl-butan-1-one] | 3000 | 325 | – |
| Cc1cccc(CN2CCC(CCCC(=O)c3ncco3)CC2)c1C [Example 94, 4-[1-(2,3-Dimethyl-benzyl)-piperidin-4-yl]-1-oxazol-2-yl-butan-1-one] | 2100 | 400 | – |
| O=C(CCCC1CCN(C(=O)C2CCCCC2)CC1)c1ncco1 [Example 29, 4-(1-Cyclohexanecarbonyl-piperidin-4-yl)-1-oxazol-2-yl-butan-1-one] | 180 | 45 | – |
| O=C(CCCC1CCN(Cc2ccc(F)cc2F)CC1)c1ncco1 [Example 114, 4-[1-(2,4-Difluoro-benzyl)-piperidin-4-yl]-1-oxazol-2-yl-butan-1-one] | 325 | 110 | – |
| O=C(CCCC1CCN(Cc2ccc3ccccc3n2)CC1)c1ncco1 [Example 92, 1-Oxazol-2-yl-4-(1-quinolin-2-ylmethyl-piperidin-4-yl)-butan-1-one] | 290 | 60 | – |
| O=C(CCCC1CCN(C(=O)CCc2ccccc2)CC1)c1ncco1 [Example 36, 1-Oxazol-2-yl-4-[1-(3-phenyl-propionyl)-piperidin-4-yl]-butan-1-one] | 56 | 46 | – |
| O=C(CCCC1CCN(C(=O)C2CCCC2)CC1)c1ncco1 [Example 31, 4-(1-Cyclopentanecarbonyl-piperidin-4-yl)-1-oxazol-2-yl-butan-1-one] | 288 | 106 | – |
| O=C(CCCC1CCN(Cc2ccc(N3CCCC3)cc2)CC1)c1ncco1 [Example 102, 1-oxazol-2-yl-4-[1-(4-pyrrolidin-1-yl-benzyl)-piperidin-4-yl]-butan-1-one] | 3000 | 530 | – |
| O=C(CCCC1CCN(Cc2ccccc2)CC1)c1ncco1 [Example 3, 4-(1-Benzyl-piperidin-4-yl)-1-oxazol-2-yl-butan-1-one] | 900 | 315 | – |
| CC(C)c1ccc(CN2CCC(CCCC(=O)c3ncco3)CC2)cc1 [Example 22, 4-[1-(4-Isopropyl-benzyl)-piperidin-4-yl]-1-oxazol-2-yl-butan-1-one] | 5 | 3 | – |
| CC(C)(C)c1ccc(CN2CCC(CCCC(=O)c3ncco3)CC2)cn1 [Example 139, 4-[1-(6-tert-Butyl-pyridin-3-ylmethyl)-piperidin-4-yl]-1-oxazol-2-yl-butan-1-one] | 550 | 50 | – |
| O=C(CCCC1CCN(Cc2cccc(F)c2)CC1)c1ncco1 [Example 8, 4-[1-(3-Fluoro-benzyl)-piperidin-4-yl]-1-oxazol-2-yl-butan-1-one] | 350 | 100 | – |
| CC(C)S(=O)(=O)N1CCC(CCCC(=O)c2ncco2)CC1 [Example 56, 1-Oxazol-2-yl-4-[1-(propane-2-sulfonyl)-piperidin-4-yl]-butan-1-one] | 3350 | – | 142 |
